“And” between values parts separate entries of the source, which are not always exact repeats. Identical values can stand only once. “Also recorded” adds a separate entry of the source.
Tests used:
[1] = In-life observations: body weight, gross findings before and at necropsy; assay type: in vivo, Male Fischer 344/N rats; conditions: individual animals
Description: Doses were determined with pilot experiments. […] Serum was collected for clinical chemistry.

liver = assay: Liver histopathology (H&E sections of left liver lobe, severity graded) after a single dose
Description: The animals were acclimated for 14 days and observed for absence of disease.
Doses were determined with pilot experiments. For each chemical, doses that elicited a sub-toxic ('low'), a moderately toxic ('medium') or a overtly toxic ('high') response 24 hours after treatment were selected. […] For each compound, control animal groups were treated with vehicle alone. All animals were fasted for 12-18 hours prior to exposure. Groups of four to six animals were dosed between 8:30 and 9:30 a.m.; thereafter, feed was provided ad libitum. After 6, 24 or 48 hours of treatment, animals were anesthetized by isoflurane anesthesia. Whole blood was collected via retro-orbital plexus for hematology and gene expression analysis. Serum was collected for clinical chemistry. The animals were euthanized while under anesthesia by cervical dislocation and necropsied within 4 minutes of sacrifice. The left liver lobe was promptly removed and two defined cross sections were placed in 10% neutral buffered formalin for subsequent histopathology.
The cross sections that were fixed by immersion in 10% neutral buffered formalin (see 'In-life studies' section above) were transferred to histology grade alcohol for 18-24 hours after necropsy. Tissues were then processed, embedded in paraffin, sectioned at 5 microns, and stained with hematoxylin and eosin. A pathologist completed the initial microscopic evaluation of each liver sample for a given compound. […] An independent pathology quality assessment review was performed by a second pathologist on the initial histopathological findings.

[2] = 15 mg/kg, gavage, corn oil, 6 hours
[3] = 15 mg/kg, gavage, corn oil, 24 hours, listed as 1, 4-Dichlorobenzene
[4] = 15 mg/kg, gavage, corn oil, 48 hours
[5] = 150 mg/kg, gavage, corn oil, 6 hours
[6] = 150 mg/kg, gavage, corn oil, 24 hours, listed as 1, 4-Dichlorobenzene
[7] = 150 mg/kg, gavage, corn oil, 48 hours
[8] = 1500 mg/kg, gavage, corn oil, 24 hours, listed as 1, 4-Dichlorobenzene
[9] = 1500 mg/kg, gavage, corn oil, 48 hours
[10] = medium dose, 6 hour, six animals

## Clc1ccc(Cl)cc1 [1,4-Dichlorobenzene]
[1]; [2]
  Clin/Ob Prior to Necropsy: Normal
  Gross Findings: No Gross Findings
[1]; 15 mg/kg, gavage, corn oil, 24 hours
  Clin/Ob Prior to Necropsy: Normal
[1]; [3]
  Final Body Wt.: 232.30 g and 225.40 g and 254.10 g and 277.50 g
  Gross Findings: Liver median lobe with dark area 3x5 mm; also recorded: No Gross Findings
[1]; [4]
  Clin/Ob Prior to Necropsy: Normal
  Gross Findings: No Gross Findings
[1]; 15 mg/kg, gavage, corn oil, 48 hours, listed as 1, 4-Dichlorobenzene
  Final Body Wt.: 239.30 g and 240.50 g and 258.30 g and 262.70 g
[1]; [5]
  Clin/Ob Prior to Necropsy: Normal
  Gross Findings: No Gross Findings
[1]; 150 mg/kg, gavage, corn oil, 24 hours
  Clin/Ob Prior to Necropsy: Normal
[1]; [6]
  Final Body Wt.: 243.60 g and 238.40 g and 164.30 g and 262.50 g
  Gross Findings: Liver median lobe mottled; Bladder calculi; also recorded: No Gross Findings
[1]; [7]
  Clin/Ob Prior to Necropsy: Normal
  Gross Findings: No Gross Findings
[1]; 150 mg/kg, gavage, corn oil, 48 hours, listed as 1, 4-Dichlorobenzene
  Final Body Wt.: 234.10 g and 237.30 g and 264.20 g and 251.10 g
[1]; 1500 mg/kg, gavage, corn oil, 6 hours
  Clin/Ob Prior to Necropsy: Normal
[1]; 1500 mg/kg, gavage, corn oil, 6 hours, listed as 1, 4-Dichlorobenzene
  Gross Findings: Liver left and median lobes mottled; also recorded: No Gross Findings
[1]; 1500 mg/kg, gavage, corn oil, 24 hours
  Clin/Ob Prior to Necropsy: Normal
[1]; [8]
  Final Body Wt.: 242.10 g and 248.00 g and 261.40 g and 259.70 g
  Gross Findings: No Gross Findings; also recorded: Liver median lobe mottled on dorsal side
[1]; [9]
  Clin/Ob Prior to Necropsy: Normal
  Gross Findings: No Gross Findings
[1]; 1500 mg/kg, gavage, corn oil, 48 hours, listed as 1, 4-Dichlorobenzene
  Final Body Wt.: 237.50 g and 238.20 g and 259.90 g and 253.70 g

## c1cc[n+]2c(c1)-c1cccc[n+]1CC2 [Diquat Dibromide]
[1]; 5 mg/kg, I.P., PBS, 6 hours
  Clin/Ob Prior to Necropsy: normal
  Gross Findings: No Gross Findings; also recorded: Liver: median lobe dark area ventral surface 3x5mm; also recorded: Liver: left lobe accentuated centrilobular pattern
[1]; 5 mg/kg, I.P., PBS, 24 hours
  Clin/Ob Prior to Necropsy: normal
  Final Body Wt.: 211.10 g and 208.50 g and 245.30 g and 233.00 g and 258.10 g and 250.90 g
  Gross Findings: No Gross Findings; also recorded: Liver: median lobe HDN; also recorded: Liver: left lobe mottled, median lobe mottled
[1]; 5 mg/kg, I.P., PBS, 48 hours
  Clin/Ob Prior to Necropsy: normal; also recorded: Piloerection
  Final Body Wt.: 224.20 g and 218.20 g and 231.10 g and 225.90 g and 257.30 g and 249.20 g
  Gross Findings: No Gross Findings; also recorded: Liver: left lobe mottled, median lobe mottled
[1]; 10 mg/kg, I.P., PBS, 6 hours
  Clin/Ob Prior to Necropsy: normal
  Gross Findings: Liver: left lobe mottled, median lobe pale patcity area 3x5mm; also recorded: Liver: left lobe dark focus 1x1mm, median lobe mottled; also recorded: No Gross Findings
[1]; 10 mg/kg, I.P., PBS, 24 hours
  Clin/Ob Prior to Necropsy: normal
  Final Body Wt.: 206.10 g and 210.20 g and 242.10 g and 224.30 g and 236.70 g and 244.40 g
  Gross Findings: No Gross Findings; also recorded: Liver: left lobe mottled, median lobe mottled; also recorded: Liver: median lobe dorsal surface mottled; also recorded: Liver: median lobe HDN
[1]; 10 mg/kg, I.P., PBS, 48 hours
  Clin/Ob Prior to Necropsy: normal
  Final Body Wt.: 220.20 g and 230.20 g and 218.20 g and 217.30 g and 243.20 g and 249.30 g
  Gross Findings: No Gross Findings; also recorded: Liver: left lobe small, median lobe small; also recorded: Liver: left lobe mottled, median lobe mottled
[1]; 20 mg/kg, I.P., PBS, 6 hours
  Clin/Ob Prior to Necropsy: normal
  Gross Findings: Liver: left lobe mottled dark edge, median lobe mottled; also recorded: No Gross Findings
[1]; 20 mg/kg, I.P., PBS, 24 hours
  Clin/Ob Prior to Necropsy: normal; also recorded: Piloerection
  Final Body Wt.: 207.30 g and 222.70 g and 236.30 g and 245.70 g and 242.80 g and 235.30 g
  Gross Findings: Liver: left lobe mottled/pale, median lobe mottled/pale; also recorded: No Gross Findings; also recorded: Liver: median lobe dorsal surface mottled; also recorded: Liver: left lobe mottled/pale/slightly enlarged, median lobe mottled/pale/ slightly enlarged
[1]; 20 mg/kg, I.P., PBS, 48 hours
  Clin/Ob Prior to Necropsy: normal; also recorded: Piloerection
  Final Body Wt.: 227.20 g and 217.30 g and 211.20 g and 231.70 g and 252.00 g and 265.20 g
  Gross Findings: No Gross Findings; also recorded: Liver: left lobe mottled/pale, median lobe pale; also recorded: Liver: left lobe mottled/pale, median lobe mottled/pale
[1]; 25 mg/kg, I.P., PBS, 6 hours
  Clin/Ob Prior to Necropsy: normal; also recorded: Piloerection; also recorded: Comatose
  Gross Findings: No Gross Findings; also recorded: Liver: left lobe mottled dark, median lobe mottled dark
[1]; 25 mg/kg, I.P., PBS, 24 hours
  Clin/Ob Prior to Necropsy: Piloerection; also recorded: normal; also recorded: Ungroomed Appearance
  Final Body Wt.: 240.50 g and 211.50 g and 223.20 g and 243.30 g and 234.60 g and 233.90 g
  Gross Findings: No Gross Findings; also recorded: Liver: left lobe pale, one focal tan area on dorsal side 3x3mm, tan focal area on ventral side 7x5mm; median lobe pale and mottled; also recorded: Liver: left lobe dark edge; also recorded: Liver: left lobe mottled/pale/ rough surface minimal, median lobe mottled/pale/ rough surface minimal
[1]; 25 mg/kg, I.P., PBS, 48 hours
  Clin/Ob Prior to Necropsy: normal; also recorded: Ungroomed Appearance; also recorded: Piloerection
  Final Body Wt.: 205.20 g and 208.20 g and 226.90 g and 212.10 g and 236.10 g and 244.10 g
  Gross Findings: Liver: left lobe pale/small, median lobe pale/small; also recorded: Liver: left lobe pale/mottled/ rough surface slight, median lobe pale/mottled/ rough surface slight

## c1cc[n+]2c(c1)-c1cccc[n+]1CC2 [Diquat]
liver; high dose, 48 hour
  extent of hepatocellular necrosis, amount of inflammatory cell infiltrates and/or indications of hepatocellular repair (mitosis) across animals: variability
liver; [10]
  animals with minimal levels of hepatocellular necrosis: one
  animals with no apparent histopathological observations: Three of the six
  animals with noted levels of glycogen depletion: two
liver; rat, single administration
  Primary site of livery injury: Mid-zonal to centrilobular
